Data reported in patent US20190390245A1, “CYTOTOXICITY TEST METHOD FOR MEDICAL DEVICE” (ALCON INC., priority 2018, published 2019).
Like-named read-outs stand apart in the source and are kept apart here.

Key:
L929 cells [1] = assay: ISO/USP (traditional) agar overlay cytotoxicity test; type: cell-based, Mouse
Description: The ISO 10993-5 (2009) qualitative agar diffusion/overlay assay is appropriate for high density materials and liquids. This assay is conducted by adding a thin layer of nutrient-supplemented agar over the near confluent monolayer of L929 cells, and the test material (a solid sample, or an extract of the test material or liquid placed on filter paper) is placed on top of the agar layer. The cushioning effect of an agar layer protects the L929 cells from the potential mechanical damage by the test material's movement. Cells are examined after 24-hours incubation for signs of toxicity and stained with neutral red dye to differentiate between the viable, stressed or lysed cells. Cytotoxic leachates diffuse into the cell layer through the agar, and toxicity is indicated by a loss of viable cells around the test device as evidenced by area devoid of stain under and around the test material. The disadvantage of agar overlay assay is that potential cytotoxic leachates may bind to the agar and not be able to diffuse across the plate as compared to the liquid medium; thus, the cells are not fully exposed to the test substance.

L929 cells [2] = assay: Two layer embedded modified agar overlay cytotoxicity test
Description: The test article meets the ‘pass’ criteria of the test if the biological response is less than or equal to grade 2 (mild).
1×MEMAOM was used as the nutrient supplement agar at 2 mL/well.
B) Two layer embedded modified agar overlay. The test materials were added after the base nutrient agar solidified, and 2.0 mL of L929 (1.8×10^6 cells/mL) cell agar mixture described above was added on top of the test materials to fully cover the test materials with a final cell concentration of 3.6×10^6 cells/well. After 24 hours of incubation, cells were examined as described in ISO/USP agar overlay method.
C) For the extended study duration, cells were prepared as described in A) and B). Reference material A and no treatment were evaluated for up to 72-hour incubation.
D) two layer modified and embedded modified agar overlay for liquid materials. Paper filter discs (100 μL of either 100% Ethanol or 2000 ppm BAK) were prepared as described in A) and B).

L929 cells [3] = details: concentration known to be toxic to the rabbit eyes; Bruinink and Luginbuehl, 2012; cited from earlier work

| Molecule | Grade, color zone formation, ISO/USP Agar Overlay (L929 cells [1]) | Color zone formation (observation), Two layer embedded Modified Agar Overlay (L929 cells [2]) | Cytotoxicity responses, traditional agar overlay method (previous observations) (L929 cells [3]) | Color zone formation (observation), Two layer embedded Modified Agar Overlay (L929 cells [2]; Table 4, liquids, 100 μL on paper filter) |
| --- | --- | --- | --- | --- |
| Benzalkonium Chloride [BAK] | Grade 0 | no zone | failed to show cytotoxicity responses | – |
| CCO [Ethanol, ethanol] | – | – | – | no zone |
